Measurements from ChEMBL document CHEMBL4651402, “Screening of ~5500 FDA-approved drugs and clinical candidates for anti-SARS-CoV-2 activity” (2021).

Test system: SARS-CoV-2
Assay: microbe, parasite or virus in culture
Conditions: Severe acute respiratory syndrome coronavirus 2, Vero C1008, 48 h

Compound	IC50 [µM]	IC50 (read-out: pIC50 (converted)) [µM]
CN1CCCC(CN2c3ccccc3Sc3ccccc32)C1 (stereo unspecified) [MEPAZINE]	> 20	> 20
O=C[C@@H]1CCCN1C(=O)CCC(=O)NCc1ccc(Cl)cc1	> 20	> 20
COc1cc2c(cc1OC)C(=O)OC2 [METAMECONINE]	> 20	> 20
O=C(O)CCCC[C@H]1SC[C@H]2NC(=O)N[C@H]21	> 20	> 20
CCNC(=O)[C@H]1O[C@@H](n2cnc3c(N)nc(C#CC[C@H]4CC[C@H](C(=O)OC)CC4)nc32)[C@H](O)[C@@H]1O [APADENOSON]	> 50.1	> 50.1
CCN(CC)CCc1nc(-c2ccccc2)no1 [OXOLAMINE]	> 20	> 20
CC(C)=CCN1CC[C@]2(C)c3cc(O)ccc3C[C@H]1[C@H]2C [(+)-PENTAZOCINE]	> 20	> 20
CCNC1=Nc2ccc(Cl)cc2C(C)(c2ccccc2)O1 (stereo unspecified) [ETIFOXINE]	> 20	> 20
CC(=O)NC(CCC(N)=O)C(=O)O (stereo unspecified)	> 20	> 20
COc1ccc(-n2[nH]c(=O)c3[nH]c4cc(Cl)ccc4c(=O)c3c2=O)c(C)c1	> 20	> 20
CN(C)Cc1ccc(CSCCNC2=NS(=O)(=O)c3cscc32)o1	> 20	> 20
CC12CCC3c4ccc(OC(=O)c5ccccc5)cc4CCC3C1CCC2O (stereo unspecified)	> 20	> 20
CN1[C@@H]2C[C@@H](OC(=O)[C@H](CO)c3ccccc3)C[C@H]1[C@@H]1O[C@@H]12 [SCOPOLAMINE]	> 20	> 20
Cc1c[nH]c2ccccc12	> 20	> 20
Oc1nc(O)c2cn[nH]c2n1 [OXYPURINOL]	> 20	> 20
C[C@]1(O)CCC2C3CC[C@H]4CC(=O)/C(=C/O)C[C@]4(C)C3CC[C@@]21C (stereo partly specified)	> 20	> 20
CSc1nc2cc(Cl)c(Oc3cccc(Cl)c3Cl)cc2[nH]1 [TRICLABENDAZOLE]	> 20	> 20
Cc1cccc(Oc2cnc(=O)[nH]c2)c1 [TOLIMIDONE]	> 20	> 20
CC[C@@H]1C[C@]1(NC(=O)[C@@H]1C[C@@H]2CN1C(=O)[C@H](C(C)(C)C)NC(=O)OCC(C)(C)CCCCc1cccc3c1CN(C3)C(=O)O2)C(=O)NS(=O)(=O)C1CC1	> 20	> 20
O=C1NC(O)CCN1[C@@H]1O[C@H](CO)[C@@H](O)[C@H]1O (stereo partly specified) [TETRAHYDROURIDINE]	> 20	> 20
Cc1cc(Nc2cc(N3CCN(C)CC3)nc(Sc3ccc(NC(=O)C4CC4)cc3)n2)n[nH]1 [TOZASERTIB]	> 20	> 20
CC[C@@H]1CN(C(=O)NCC(F)(F)F)C[C@@H]1c1cnc2cnc3[nH]ccc3n12 [UPADACITINIB]	> 20	> 20
COc1ccc(C(=O)NC2(C(=O)O)Cc3ccccc3C2)cc1OCCc1cccc(C)c1 [FIPAXALPARANT]	> 20	> 20
C#C[C@]1(O)CC[C@H]2[C@@H]3CCC4=Cc5oncc5C[C@]4(C)[C@H]3CC[C@@]21C [DANAZOL]	> 20	> 20
CN(C)c1cc(NC(=O)CNC(C)(C)C)c(O)c2c1C[C@H]1C[C@H]3[C@H](N(C)C)C(O)=C(C(N)=O)C(=O)[C@@]3(O)C(O)=C1C2=O [TIGECYCLINE]	> 20	> 20

Compound	IC50 [µM]	IC50 (read-out: pIC50 (converted)) [µM]
COc1ccc(/C=C/C(=O)O)cc1OC	> 20	> 20
CNC(=O)[C@H]1O[C@@H](n2cnc3c(NCc4cccc(I)c4)ncnc32)[C@H](O)[C@@H]1O [IB-MECA]	> 20	> 20
CN(C)[C@@H](c1cccc(O)c1)[C@H]1CCCC[C@H]1O [CIRAMADOL]	> 20	> 20
CC(C)(Oc1ccc(C(=O)c2ccc(Cl)cc2)cc1)C(=O)O [FENOFIBRIC ACID]	> 20	> 20
CC1=C(CC(=O)O)c2cc(F)ccc2/C1=C\c1ccc(S(C)(=O)=O)cc1 [EXISULIND]	> 20	> 20
CNCCc1ccccn1 [BETAHISTINE]	> 20	> 20
CC(C)C(N)=O [ISOBUTYRAMIDE]	> 20	> 20
CC(=O)N(c1onc(C)c1C)S(=O)(=O)c1ccc(N)cc1 [SULFISOXAZOLE ACETYL]	> 20	> 20
CN(Cc1ccc(C(C)(C)C)cc1)Cc1cccc2ccccc12 [BUTENAFINE]	> 20	> 20
Cc1ccc(C(=O)c2cc(O)c(O)c([N+](=O)[O-])c2)cc1 [TOLCAPONE]	> 20	> 20
COC(=O)C1=COC(C)C2CN3CCc4c([nH]c5ccccc45)C3CC12 (stereo unspecified)	> 20	> 20
CN1C(=O)[C@@H](NC(=O)c2n[nH]c(Cc3ccccc3)n2)COc2ccccc21 [GSK2982772]	> 20	> 20
C[C@@H](c1ccc2nccn2c1)n1nnc2ncc(-c3cnn(C)c3)nc21 [SAVOLITINIB]	> 20	> 20
CC[C@@H](c1cccc(O)c1)[C@@H](C)CN(C)C [TAPENTADOL]	> 20	> 20
CCS(=O)(=O)N1CCN(c2ccc(Nc3ncc(C(N)=O)c(NC4CC4)n3)cc2)CC1 [CERDULATINIB]	> 20	> 20
CN1C(=O)OC(C)(C)C1=O [TRIMETHADIONE]	> 20	> 20
C[N+](C)(C)CCCCCCCCCC[N+](C)(C)C [DECAMETHONIUM]	> 20	> 20
CC(=O)[C@H]1CC[C@H]2[C@@H]3C=CC4=CC(=O)CC[C@@]4(C)[C@@H]3CC[C@]12C [DYDROGESTERONE]	> 20	> 20
CO[C@H]1/C=C\C=C(\C)C(=O)NC2=CC(=O)C(NCCN(C)C)=C(C[C@@H](C)C[C@H](OC)[C@H](O)[C@@H](C)/C=C(/C)[C@@H]1OC(N)=O)C2=O	> 20	> 20
CC[C@H]1C2C[C@H]3[C@@H]4N(C)c5ccccc5[C@]45C[C@H](C2[C@H]5O)N3[C@@H]1O (stereo partly specified)	> 20	> 20
COc1ccc(-c2ccc(N)[n+](CCCC(=O)O)n2)cc1	> 20	> 20
COC(=O)OC[C@H]1O[C@@H](Oc2cc(C)cc(O)c2C(=O)CCc2ccc3occc3c2)[C@H](O)[C@@H](O)[C@@H]1O	> 20	> 20
CO[C@H]1[C@H](O)[C@@H](O)[C@H](O)[C@H](O)[C@H]1O [QUEBRACHITOL]	> 20	> 20
COc1ccc(CC(C)N)cc1 (stereo unspecified) [PARA-METHOXYAMPHETAMINE]	> 20	> 20
CN1CCN(c2cc3c(cc2F)c(=O)c(C(=O)O)cn3-c2ccc(F)cc2)CC1 [DIFLOXACIN]	> 20	> 20

Compound	IC50 [µM]	IC50 (read-out: pIC50 (converted)) [µM]
Cn1cnc2c(F)c(Nc3ccc(Br)cc3Cl)c(C(=O)NOCCO)cc21 [SELUMETINIB]	> 20	> 20
Cc1cc2c(cc1CC(=O)c1sccc1S(=O)(=O)Nc1onc(C)c1Cl)OCO2 [SITAXENTAN]	> 20	> 20
CC1(C)O[C@@H]2C[C@H]3[C@@H]4CCC5=CC(=O)CC[C@]5(C)[C@@]4(F)[C@@H](O)C[C@]3(C)[C@]2(C(=O)CCl)O1 [HALCINONIDE]	> 20	> 20
CCC/N=C1\S/C(=C\c2ccc(OC[C@H](O)CO)c(Cl)c2)C(=O)N1c1ccccc1C [PONESIMOD]	> 20	> 20
COc1c(OC)c(OC(C)=O)c2cc(Cl)ccc2c1OC(C)=O [LONAPALENE]	> 20	> 20
CCN(CC)CCOc1ccc(Cc2ccccc2)cc1	> 20	> 20
C[C@H](CCC(=O)NCCS(=O)(=O)O)[C@H]1CC[C@H]2[C@@H]3[C@@H](O)CC4C[C@H](O)CC[C@]4(C)[C@H]3CC[C@]12C (stereo partly specified)	> 20	> 20
COc1cc(C(=O)OC2CC3CCC(C2)N3C)ccc1O (stereo unspecified) [FILLALBIN]	> 20	> 20
COc1c(C)cnc(Cn2cnc3c(Cl)nc(N)nc32)c1C [BIIB021]	> 20	> 20
O=c1[nH]c(=O)c(Cc2cccc(C(F)(F)F)c2)c([C@H]2CC[C@H](c3ccccc3)CC2)[nH]1 [MIRICORILANT]	> 20	> 20
NC(=O)C1(N2CCCCC2)CCN(CCCC(=O)c2ccc(F)cc2)CC1 [PIPAMPERONE]	> 20	> 20
CNC(=O)Oc1ccc2c(c1)[C@]1(C)CCN(C)[C@@H]1N2C [PHYSOSTIGMINE]	> 20	> 20
Cc1cn[nH]c1 [FOMEPIZOLE]	> 20	> 20
CC(C(=O)O)c1ccc2c(c1)[nH]c1ccc(Cl)cc12 (stereo unspecified) [CARPROFEN]	> 20	> 20
CCOC(=O)c1ccc(OC(=O)CCCCCNC(=N)N)cc1 [GABEXATE]	> 20	> 20
CN(C)CCN(Cc1ccccc1)c1ccccc1	> 20	> 20
C[N+](C)(CCOc1ccccc1)Cc1ccccc1 [BEPHENIUM]	> 20	> 20
CC(=O)OC1CC2CCC1(C)C2(C)C (stereo unspecified)	> 20	> 20
COc1ccc2c3c1O[C@H]1[C@@H](O)C=C[C@H]4[C@@H](C2)NCC[C@@]341 [NORCODEINE]	> 20	> 20
O=C(NC[C@H](O)CO)c1ccncc1Nc1ccc(I)cc1F [PIMASERTIB]	> 20	> 20
O=C(O)[C@@H]1[C@H]2C[C@H]3c4[nH]c5ccccc5c4CCN3C[C@@H]2CC[C@@H]1O [YOHIMBIC ACID]	> 20	> 20
COCc1c(-c2ccc(NC(=O)Nc3cc(C(F)(F)F)ccc3F)c(F)c2)c2c(N)ncnn2c1CN1CCOCC1	> 20	> 20
C=CC(=O)N1CCC([C@@H]2CCNc3c(C(N)=O)c(-c4ccc(Oc5ccccc5)cc4)nn32)CC1 [ZANUBRUTINIB]	> 20	> 20
